From patent US5298502A, “Method and composition for photodynamic treatment and detection of tumors” (priority 1991, dated 1994)

Key:
[1] = tested on: cotyledons harvested from etiolated cucumber seedlings; assay: Percent Efflux test (Efflux Experiment); assay type: tissue-based, Cucumis sativus L.; details: 100 nM concentration
Experimental: The enzyme-inhibiting agent is preferably one which has a high capacity for disrupting the plasmalemma of plant material. One test for that capacity is the Efflux Experiment described in the article by Halling and Peters in Plant Physiology, 84, 1114-5 (1987).
The Percent Efflux test employs cotyledons harvested from etiolated cucumber seedlings. In an initial step a mass of cotyledons is treated in the dark with an aqueous buffered solution containing a radiolabelled sugar. The amount of the sugar taken up by the cotyledons is then measured (by counting, as described below). […] The cotyledons, in contact with the aqueous solutions, are then exposed to light for 16 hours, and then separated from the aqueous solutions; the latter are then measured (by counting) to determine their contents of radiolabelled material. The results are expressed as Percent Efflux Which is calculated as follows, where S is the count of radiolabelled material (per cotyledon) taken up by the cotyledons in their initial treatment, ST is the count of radiolabelled material (per cotyledon) in the aqueous solution containing the compound to be tested, after the exposure to light and Sc is the count of radiolabelled material (per cotyledon) in the aqueous solution of the control, after exposure to light: [formula] […]

mosquito larvae = assay: Insecticidal test against mosquito larvae; details: in vivo
[2] = target: Protoporphyrinogen Oxidase; assay: Protoporphyrinogen oxidase assay using isolated enzyme; assay type: biochemical, Peas (Pisum sativum var. Little Marvel); details: isolated pea etioplast enzyme
Experimental: Plant Material and Homogenization: Peas (Pisum sativum var. Little Marvel) germinated at 20° C. in a dark growth chamber ten days. Plants were illuminated for one hour per day, which allowed for significant leaf expansion while minimizing chlorophyll synthesis. Leaves were pale yellow-green in color.
The leaves were then homogenized in 500 mL of grinding media consisting of 0.5 M mannitol, 10 mM HEPES, 20 mM TES, 1 mM EDTA, 1 mM MgCl2, 5 mM cysteine, and 0.2 BSA, pH 7.7. The brei was then passed through four layers of cheesecloth, then through a 43-micron nylon mesh. The hemogenate was then centrifuged at 4000 g for 3 minutes. The resultant pellet was utilized for plastid isolation.
Etioplast Isolation and Purification: The pellet (plastid fraction) was resuspended in 40 mL of assay media (grinding media minus cysteine and containing 1 mM DTE and 1% ESA) and centrifuged at 150 g to remove cellular debris. The resultant supernatant was centrifuged at 4000 g, and the resuspended pellets were overlaid on 40% Percoll. […]
Protein content was determined utilizing the BioRad method. […]
Purification Utilizing DEAE Chromatography: A 0.75 mL volume of plastid-solubilized-enzyme preparation was loaded onto a Waters Protein-Pak DEAE-5PW column (8 mm×7.5 cm) equilibrated with Elution Buffer. […] Peaks were detected using a Waters 494 UV detector at 260 nm, sensitivity:1AU. […]

[3] = tested on: enzymatic conversion of Proto IX to magnesium Proto IX; assay: Conversion of Proto IX to magnesium Proto IX in chloroplast suspension; assay type: biochemical, Cucumber (Cucumis sativus L.); details: 10 μm AFM, in the presence of ATP
HeLa cells [4] = assay: Tetrapyrrole accumulation in treated HeLa cells (Example 1); assay type: cell-based, human; details: 100 μM agent, 3 days in the dark
Experimental: HeLa cells (a human tumor cell line commonly employed for tumor research and obtained from the American Type Culture Collection), in logarithmic growth phase (having been cultured at 37° C. for five days in one-liter Falcon tissue culture flasks), were washed in phosphate buffered saline (PBS). A 0.25% solution of trypsin in PBS (2 mL) was added, and, after several minutes, the cells were gently removed from the flask and placed into 110 mL of a 25 mM solution of Hepes in Minimum Essential Medium (MEM) supplemented with 10% v/v inactivated calf serum, 1.1 mL of a 200 mM solution of glutamine in 0.85% saline solution, and 11,000 units of penicillin/11,000 mcg streptomycin.
Then, 5.0 mL aliquots of the resulting resuspended cell culture were each placed into a 50 mL Falcon tissue culture flask and (except for the control) mixed with the treating agent. The aliquots were then incubated in the dark at 37° C. for three days. The cells were then removed and extracted under green light in the following manner:
Cells were removed from the bottom of the flask with the addition of 0.8 mL of a 0.25% solution of trypsin in PBS. After 1 hour of incubation in the dark, cells and medium were removed from the flasks, placed into round bottom centrifuge tubes, and then subjected to two rounds of freeze-thaw conditions to disrupt the cells and allow for extraction.
Ten mL of basic acetone (90% acetone:10% of 0.1 N NH4 OH) was then added to each tube, and the tubes were centrifuged to remove protein and cell debris. Five mL of water was added to the supernatant, followed by 0.5 mL of a saturated aqueous solution of NaCl. The pH was then adjusted to 6.8 by the dropwise addition of 2 M KH2 PO4. The aqueous acetone extract was then loaded onto a C8 Baker Prep column. The columns were dried and then washed with 2 mL of water. The tetrapyrroles were eluted with 2×1.5 mL volumes of 90/10 CH3 OH/H2 O. Extracts were then quantified on a spectrofluorometer.
Agent A was supplied as a filter-sterilized 250 mM solution in water, pH 6.5. Agents B, C, D, and E were supplied as 50 mM solutions in acetone. Acetone was also added to the control to provide a concentration of 0.2% v/v therein. The amounts of the agents added to the cell cultures were such as to give the concentrations specified in the Table 1 below. The amounts of the tetrapyrrole protoporphyrin IX ("Proto IX") produced are shown in that Table.

HeLa cells [5] = assay: Growth inhibition and Proto IX accumulation in HeLa cells (Example 2); assay type: cell-based, human; details: 100 μM agent
Experimental: HeLa cells, in logarithmic growth phase having been cultured for 6 days in six one-liter Falcon tissue culture flasks at 37° C.), were washed in phosphate buffered saline (PBS). A 0.25% solution of trypsin in PBS was added, and, after several minutes, the cells were gently removed and placed into 110 mL of a 25 mM solution of Hepes in Minimum Essential Medium (MEM), supplemented with 10% v/v inactivated calf serum, 1.1 mL of a 200 mM solution of glutamine in 0.85% saline solution, and 11,000 units of penicillin/11,000 mcg streptomycin.
Aliquots (5.0 mL each) of the resuspended cell culture were placed into 50 mL Falcon tissue culture flasks, with or without herbicide, and incubated in the dark at 37° C. for 4 days, the herbicide being added in dilute acetone solution as in Example 1. Acetone was also added to the controls to provide a concentration of acetone of 0.2% v/v therein. The amount of herbicide was such as to provide the concentrations specified in Table 2 below.
Extraction: The media from each of the flasks were placed in glass round bottom tubes, while the cells adhering to the bottom of the flasks were loosened by the addition of 0.5 mL of a 0.25% solution of trypsin in PBS, and after several minutes at 37° C., then washed from the flasks and recombined with their media. Aliquots of 100 μL were then removed from each cell suspension to determine cell density. The remaining 5.4 mL of cell suspension was then sonified for 30 minutes to disrupt the cells.
Ten mL of basic acetone (90% acetone:10% 0.1 N NH4 OH) was then added to each tube, and the tubes were centrifuged to remove protein and cell debris. Five mL of water was added to the supernatant, followed by 0.5 mL of a saturated aqueous solution of NaCl. The pH was then adjusted to 6.8 by the dropwise addition of 2 M KH2 PO4. The aqueous acetone extract was then loaded onto a C8 Baker Prep column. The columns were dried and then washed with 2 mL of water. The tetrapyrroles were eluted with 3 mL of 90/10 CH3 OH/H2 O. As in Example 1, all these extraction procedures were carried out substantially entirely under non-protoporphrin IX-exciting light (e.g. green light) or in the dark (e.g. in opaque covered containers). The fluorescence of the extracts was then determined on a SPEX spectrofluorometer. Protoporphyrin IX ("Proto IX") accumulation was quantified utilizing predetermined extinction coefficients.

cabbage loopers = assay: Insecticidal test against cabbage loopers; details: in vivo
tumors = details: injected into animals; cited from earlier work
human erythrocytes = details: introduced into human erythrocytes; cited from earlier work
murine leukemia cells = details: cited from earlier work

C#CCOc1cc(-n2nc(C)n(C(F)F)c2=O)c(F)cc1Cl [1-(4-chloro-2-fluoro-5-propargyloxyphenyl) -3-methyl-4-difluoromethyl-Δ^2-1,2,4-triazolin-5-one]
total efflux [1]: over 90%

COC(=O)c1cc(Oc2ccc(C(F)(F)F)cc2Cl)ccc1[N+](=O)[O-] [Agent B, Acifluorfen-methyl]
activity against mosquito larvae (mosquito larvae): active
pI50 (negative log of the I50 Molarity) [2]: 7.1
IC50 ([2]; read-out: I50): 0.08 µM
effect on enzymatic conversion of Proto IX to magnesium Proto IX [3]: no inhibiting effect
Amount of Proto IX (HeLa cells [4]): 1.3 pmol
Fluorescence Emission cps 400/630 (HeLa cells [4]): 12921 cps
Amount of Proto IX (HeLa cells [5]; average amount per 10^6 cells): 5.20 pmol
inhibition at 100 µM (HeLa cells [5]; Homo sapiens, HeLa, 96 h, 4 days in the dark): 99%
activity against cabbage loopers (cabbage loopers): active

C#CCOc1cc(-n2nc(C)n(C(F)F)c2=O)c(F)cc1Cl [Agent 7f]
activity against mosquito larvae (mosquito larvae): active
activity against cabbage loopers (cabbage loopers): active

C=CC1=C(C)c2cc3[nH]c(cc4nc(cc5[nH]c(cc1n2)c(C)c5CCC(=O)O)C(CCC(=O)O)=C4C)c(C)c3C=C [protoporphyrin]
protoporphyrin in the tumors after injection (tumors): no detectable protoporphyrin in the tumors
photosensitizing effect (human erythrocytes): marked photosensitizing effect
photosensitizing potency (murine leukemia cells): most potent photosensitizing agent of those tested

CCOC(=O)C(C)OC(=O)c1cc(Oc2ccc(C(F)(F)F)cc2Cl)ccc1[N+](=O)[O-] (stereo not shown) [lactophen, 1-(carboethoxy)ethyl 5-(2-chloro-4-trifluoromethylphenoxy) -2-nitrobenzoate, reference compound]
total efflux [1]: over 90%
